Measured values as given in patent US11339130B1 (Blade Therapeutics, Inc., priority 2016, dated 2022).
Where two headings read alike, the source gives them in different places.

Tests used:
Format in all cases: biochemical
Human Calpain 2/NS1 = biological target: T1, Human Calpain 2/NS1 (Homo sapiens, UniProt P17655); assay: Calpain inhibition continuous fluorescence (FRET) assay, Human Calpain 2/NS1; conditions: read-out: Human Calpain 2/NS1 IC50
T1 sequence (P17655 1-700): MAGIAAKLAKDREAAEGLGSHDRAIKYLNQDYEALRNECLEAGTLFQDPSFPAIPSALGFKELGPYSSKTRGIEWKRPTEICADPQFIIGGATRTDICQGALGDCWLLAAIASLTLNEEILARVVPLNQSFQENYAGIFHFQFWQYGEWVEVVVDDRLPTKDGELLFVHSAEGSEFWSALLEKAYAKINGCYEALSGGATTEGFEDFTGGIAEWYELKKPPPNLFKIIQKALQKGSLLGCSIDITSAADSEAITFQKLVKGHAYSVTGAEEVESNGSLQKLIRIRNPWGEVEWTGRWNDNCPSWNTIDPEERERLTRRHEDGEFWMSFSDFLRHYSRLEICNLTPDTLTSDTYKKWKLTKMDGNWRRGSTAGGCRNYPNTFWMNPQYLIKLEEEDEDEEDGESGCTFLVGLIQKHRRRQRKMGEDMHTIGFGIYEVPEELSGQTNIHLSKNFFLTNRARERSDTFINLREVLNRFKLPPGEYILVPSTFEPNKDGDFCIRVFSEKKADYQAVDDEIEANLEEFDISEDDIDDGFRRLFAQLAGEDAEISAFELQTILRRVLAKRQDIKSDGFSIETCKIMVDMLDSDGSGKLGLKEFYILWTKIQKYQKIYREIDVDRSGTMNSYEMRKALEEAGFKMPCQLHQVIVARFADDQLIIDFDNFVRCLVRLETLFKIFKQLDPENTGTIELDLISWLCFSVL
T1 sequence (P04632 1-268 partner): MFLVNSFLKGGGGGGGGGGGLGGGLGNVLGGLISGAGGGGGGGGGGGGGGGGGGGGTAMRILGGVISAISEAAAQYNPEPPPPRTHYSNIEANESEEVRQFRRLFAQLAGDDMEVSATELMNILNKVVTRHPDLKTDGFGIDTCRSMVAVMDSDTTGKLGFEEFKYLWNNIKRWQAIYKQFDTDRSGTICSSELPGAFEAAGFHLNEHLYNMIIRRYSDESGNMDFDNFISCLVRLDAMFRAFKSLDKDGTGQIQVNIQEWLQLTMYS
In short: (§1)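 Buffer 50 mM Tris pH 7.5/100 mM NaCl/1 mM DTT; enzyme + cpd preinc 25C; start w/ FRET substrate + CaCl2; kinetic 490/520 nm, 10 min; slopes 1-5 min; 4-PL IC50.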

Human Calpain 1/NS1 = biological target: T2, Human Calpain 1/NS1 (Homo sapiens, UniProt P07384); assay: Calpain inhibition continuous fluorescence (FRET) assay, Human Calpain 1/NS1; conditions: read-out: Human Calpain 1/NS1 IC50
T2 sequence (P07384 1-714): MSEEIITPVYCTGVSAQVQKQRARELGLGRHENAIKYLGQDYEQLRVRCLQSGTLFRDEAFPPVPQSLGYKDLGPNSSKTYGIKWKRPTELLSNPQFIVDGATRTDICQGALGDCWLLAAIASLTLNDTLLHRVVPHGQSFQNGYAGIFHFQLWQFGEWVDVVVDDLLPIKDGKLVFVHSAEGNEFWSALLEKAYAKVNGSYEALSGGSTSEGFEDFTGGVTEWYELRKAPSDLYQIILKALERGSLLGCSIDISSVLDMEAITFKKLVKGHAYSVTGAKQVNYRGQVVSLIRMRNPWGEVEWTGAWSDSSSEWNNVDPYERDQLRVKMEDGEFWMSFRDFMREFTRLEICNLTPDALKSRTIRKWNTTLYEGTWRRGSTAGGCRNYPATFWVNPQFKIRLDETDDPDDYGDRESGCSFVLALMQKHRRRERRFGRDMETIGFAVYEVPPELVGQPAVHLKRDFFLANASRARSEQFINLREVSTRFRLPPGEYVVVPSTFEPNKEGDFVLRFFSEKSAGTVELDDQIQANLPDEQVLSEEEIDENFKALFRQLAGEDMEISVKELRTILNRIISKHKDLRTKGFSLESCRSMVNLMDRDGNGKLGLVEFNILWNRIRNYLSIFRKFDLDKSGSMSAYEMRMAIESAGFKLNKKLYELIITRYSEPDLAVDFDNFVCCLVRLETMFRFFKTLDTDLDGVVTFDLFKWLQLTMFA
T2 sequence (P04632 1-268 partner): T1 sequence (P04632 1-268 partner)
In short: as §1

Human Calpain 9/NS1 = biological target: T3, Human Calpain 9/NS1 (Homo sapiens, UniProt O14815); assay: Calpain inhibition continuous fluorescence (FRET) assay, Human Calpain 9/NS1; conditions: read-out: Human Calpain 9/NS1 IC50
T3 sequence (O14815 1-690): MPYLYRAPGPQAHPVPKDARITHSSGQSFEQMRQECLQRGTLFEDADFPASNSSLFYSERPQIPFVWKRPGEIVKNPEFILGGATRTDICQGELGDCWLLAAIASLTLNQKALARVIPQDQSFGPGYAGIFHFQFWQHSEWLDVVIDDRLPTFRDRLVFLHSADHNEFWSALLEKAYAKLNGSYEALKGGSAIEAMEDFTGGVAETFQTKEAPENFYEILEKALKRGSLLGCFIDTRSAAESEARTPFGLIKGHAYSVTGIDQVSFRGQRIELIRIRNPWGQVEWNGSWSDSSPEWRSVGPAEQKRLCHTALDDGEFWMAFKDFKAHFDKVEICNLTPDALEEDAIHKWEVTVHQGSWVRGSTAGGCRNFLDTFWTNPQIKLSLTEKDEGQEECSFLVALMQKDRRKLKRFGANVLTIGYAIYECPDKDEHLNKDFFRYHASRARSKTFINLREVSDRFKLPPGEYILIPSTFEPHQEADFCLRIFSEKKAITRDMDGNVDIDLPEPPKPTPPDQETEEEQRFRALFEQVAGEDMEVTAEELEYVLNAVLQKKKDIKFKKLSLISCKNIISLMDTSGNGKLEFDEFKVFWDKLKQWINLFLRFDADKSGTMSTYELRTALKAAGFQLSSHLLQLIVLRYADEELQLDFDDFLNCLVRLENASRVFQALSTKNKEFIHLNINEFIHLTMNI
T3 sequence (P04632 1-268 partner): T1 sequence (P04632 1-268 partner)
In short: as §1

`Cc1cccc(-c2nn(C)cc2C(=O)NC(Cc2ccccc2)C(=O)C(N)=O)n1` (stereo not drawn) [Compound 316, N-(4-amino-3,4-dioxo-1-phenylbutan-2-yl)-1-methyl-3-(6-methylpyridin-2-yl)-1H-pyrazole-4-carboxamide] showed an IC50 (Human Calpain 2/NS1) of over 10 µM, an IC50 (Human Calpain 1/NS1) of over 10 µM and an IC50 (Human Calpain 9/NS1) of 3 to 10 µM.
In the case of `Cc1nc(-c2ccccc2)c(C(=O)N[C@@H](Cc2ccccc2)C(=O)C(=O)NC2CC2)s1` [Compound 124, (S)—N-(4-(cyclopropylamino)-3,4-dioxo-1-phenylbutan-2-yl)-2-methyl-4-phenylthiazole-5-carboxamide], the IC50 (Human Calpain 2/NS1; Column B) is reported as under 3 µM, the IC50 (Human Calpain 1/NS1; Column A) is reported as under 3 µM and the IC50 (Human Calpain 9/NS1; Column C) is reported as under 3 µM.
Compound `Cc1noc(-c2ccccc2)c1C(=O)N[C@@H](Cc1ccccc1)C(=O)C(=O)NCc1cccc(S(C)(=O)=O)c1` [Compound 152, (s)-3-methyl-N-(4-((3-(methylsulfonyl)benzyl)amino)-3,4-dioxo-1-phenylbutan-2-yl)-5-phenylisoxazole-4-carboxamide] has an IC50 (Human Calpain 2/NS1; Column B) of under 3 µM, an IC50 (Human Calpain 1/NS1; Column A) of under 3 µM and an IC50 (Human Calpain 9/NS1; Column C) of under 3 µM.
In the case of `NC(=O)C(=O)[C@H](Cc1ccccc1)NC(=O)c1cncn1-c1n[nH]c2ccccc12` [Compound 69, (S)—N-(4-amino-3,4-dioxo-1-phenylbutan-2-yl)-1-(1H-indazol-3-yl)-1H-imidazole-5-carboxamide], the IC50 (Human Calpain 2/NS1; Column B) is reported as under 3 µM, the IC50 (Human Calpain 1/NS1; Column A) is reported as under 3 µM and the IC50 (Human Calpain 9/NS1; Column C) is reported as under 3 µM.
`Cc1noc(-c2ccccc2)c1C(=O)N[C@@H](CC(C)C)C(=O)C(N)=O` [Compound 35, (S)—N-(1-amino-5-methyl-1,2-dioxohexan-3-yl)-3-methyl-5-phenylisoxazole-4-carboxamide] was tested, and the IC50 (Human Calpain 2/NS1; Column B) was under 3 µM, the IC50 (Human Calpain 1/NS1; Column A) was under 3 µM and the IC50 (Human Calpain 9/NS1; Column C) was under 3 µM.
Work on `NC(=O)C(=O)[C@H](Cc1ccccc1)NC(=O)c1scnc1-c1ccccc1` [Compound 18, (S)—N-(4-amino-3,4-dioxo-1-phenylbutan-2-yl)-4-phenyl thiazole-5-carboxamide] yielded an IC50 (Human Calpain 2/NS1; Column B) of under 3 µM, an IC50 (Human Calpain 1/NS1; Column A) of under 3 µM and an IC50 (Human Calpain 9/NS1; Column C) of under 3 µM.
For `NC(=O)C(=O)[C@H](Cc1ccccc1)NC(=O)c1scnc1-n1cc2ccccc2n1` [Compound 37, (S)—N-(4-amino-3,4-dioxo-1-phenylbutan-2-yl)-4-(2H-indazol-2-yl)thiazole-5-carboxamide], the IC50 (Human Calpain 2/NS1; Column B) was under 3 µM, the IC50 (Human Calpain 1/NS1; Column A) was under 3 µM and the IC50 (Human Calpain 9/NS1; Column C) was under 3 µM.
With `Cn1cc(C(=O)N[C@@H](Cc2ccccc2)C(=O)C(N)=O)c(-c2ccncn2)n1` [Compound 192, (S)—N-(4-amino-3,4-dioxo-1-phenylbutan-2-yl)-1-methyl-3-(pyrimidin-4-yl)-1H-pyrazole-4-carboxamide] the IC50 (Human Calpain 2/NS1; Column B) was under 3 µM, the IC50 (Human Calpain 1/NS1; Column A) was under 3 µM and the IC50 (Human Calpain 9/NS1; Column C) was under 3 µM.
For `Cc1cc(C(=O)N[C@@H](Cc2ccccc2)C(=O)C(N)=O)nn1-c1nc(-c2ccccc2)cs1` [Compound 80, (S)—N-(4-amino-3,4-dioxo-1-phenylbutan-2-yl)-5-methyl-1-(4-phenylthiazol-2-yl)-1H-pyrazole-3-carboxamide], the IC50 (Human Calpain 2/NS1; Column B) was under 3 µM, the IC50 (Human Calpain 1/NS1; Column A) was 3 to 10 µM and the IC50 (Human Calpain 9/NS1; Column C) was 3 to 10 µM.
With `Cc1cc(C(=O)N[C@@H](Cc2ccccc2)C(=O)C(N)=O)n(-c2cccc3ccccc23)n1` [Compound 38, (S)—N-(4-amino-3,4-dioxo-1-phenylbutan-2-yl)-3-methyl-1-(naphthalen-1-yl)-1H-pyrazole-5-carboxamide] the IC50 (Human Calpain 2/NS1; Column B) was under 3 µM, the IC50 (Human Calpain 1/NS1; Column A) was under 3 µM and the IC50 (Human Calpain 9/NS1; Column C) was under 3 µM.
Compound `NC(=O)C(=O)[C@H](Cc1ccccc1)NC(=O)c1scnc1-n1ncc2ccccc21` [Compound 40, (S)—N-(4-amino-3,4-dioxo-1-phenylbutan-2-yl)-4-(1H-indazol-1-yl)thiazole-5-carboxamide] has an IC50 (Human Calpain 2/NS1; Column B) of under 3 µM, an IC50 (Human Calpain 1/NS1; Column A) of under 3 µM and an IC50 (Human Calpain 9/NS1; Column C) of under 3 µM.
`Cn1nnc(-c2ccccc2)c1C(=O)N[C@@H](Cc1ccccc1)C(=O)C(N)=O` [Compound 261, (S)—N-(4-amino-3,4-dioxo-1-phenylbutan-2-yl)-1-methyl-4-phenyl-1H-1,2,3-triazole-5-carboxamide] showed an IC50 (Human Calpain 2/NS1; Column B) of under 3 µM, an IC50 (Human Calpain 1/NS1; Column A) of under 3 µM and an IC50 (Human Calpain 9/NS1; Column C) of under 3 µM.
`O=C[C@H](Cc1ccccc1)NC(=O)c1cncs1` [Compound 91, (S)—N-(1-oxo-3-phenylpropan-2-yl)thiazole-5-carboxamide] gave an IC50 (Human Calpain 2/NS1; Column B) of under 3 µM, an IC50 (Human Calpain 1/NS1; Column A) of 3 to 10 µM and an IC50 (Human Calpain 9/NS1; Column C) of 3 to 10 µM.
`Cc1cc(C(=O)N[C@@H](Cc2ccccc2)C(=O)C(=O)NC2CC2)nn1-c1nc(-c2ccccc2)cs1` [Compound 125, (S)—N-(4-(cyclopropylamino)-3,4-dioxo-1-phenylbutan-2-yl)-5-methyl-1-(4-phenylthiazol-2-yl)-1H-pyrazole-3-carboxamide] gave an IC50 (Human Calpain 2/NS1; Column B) of over 10 µM, an IC50 (Human Calpain 1/NS1; Column A) of over 10 µM and an IC50 (Human Calpain 9/NS1; Column C) of over 10 µM.
`NC(=O)C(=O)[C@H](Cc1ccccc1)NC(=O)c1c(Cl)nsc1-c1ccccc1` [Compound 213, (S)—N-(4-amino-3,4-dioxo-1-phenylbutan-2-yl)-3-chloro-5-phenylisothiazole-4-carboxamide] was tested, and the IC50 (Human Calpain 2/NS1; Column B) was under 3 µM, the IC50 (Human Calpain 1/NS1; Column A) was under 3 µM and the IC50 (Human Calpain 9/NS1; Column C) was under 3 µM.
Work on `Cn1cnc(C(=O)N[C@@H](Cc2ccccc2)C(=O)C(N)=O)c1-c1ccccc1` [Compound 269, (S)—N-(4-amino-3,4-dioxo-1-phenylbutan-2-yl)-1-methyl-5-phenyl-1H-imidazole-4-carboxamide] yielded an IC50 (Human Calpain 2/NS1; Column B) of 3 to 10 µM, an IC50 (Human Calpain 1/NS1; Column A) of 3 to 10 µM and an IC50 (Human Calpain 9/NS1; Column C) of under 3 µM.
With `Cc1nc(C(=O)N[C@@H](Cc2ccccc2)C(=O)C(N)=O)c(-c2ccccc2)[nH]1` [Compound 79, (S)—N-(4-amino-3,4-dioxo-1-phenylbutan-2-yl)-2-methyl-5-phenyl-1H-imidazole-4-carboxamide] the IC50 (Human Calpain 2/NS1; Column B) was under 3 µM, the IC50 (Human Calpain 1/NS1; Column A) was under 3 µM and the IC50 (Human Calpain 9/NS1; Column C) was under 3 µM.
For `O=C(NC1CC1)C(=O)[C@H](Cc1ccccc1)NC(=O)c1scnc1-n1cc(-c2ccccc2)cn1` [Compound 87, (S)—N-(4-(cyclopropylamino)-3,4-dioxo-1-phenylbutan-2-yl)-4-(4-phenyl-1H-pyrazol-1-yl)thiazole-5-carboxamide], the IC50 (Human Calpain 2/NS1; Column B) was under 3 µM, the IC50 (Human Calpain 1/NS1; Column A) was over 10 µM and the IC50 (Human Calpain 9/NS1; Column C) was under 3 µM.
